The values that follow come from patent publication US20250032430A1, “USES OF RHODOQUINONE FOR THE TREATMENT OF DISEASE” (Whitehead Institute for Biomedical Research, priority 2021, published 2025).

The subject of test [1] is kidney derived cancer cell line. Briefly: Western blot of kidney derived cancer cell line cultured in hypoxia (NRF2, PDH phosphorylation). It counts as cell-based. The settings on record: hypoxia for 5 days. As for the experimental part:
This includes NRF2 accumulation, which is a sensor of oxidative stress, and phosphorylation on PDH, which is a marker of AMPK activation. AMPK senses AMP, and is hyperactive when cells have “low energy”
Western Blots: Adherent cells were lysed in RIPA buffer (150 mM NaCl, 50 mM Tris-HCl, pH 7.5, 0.1% SDS, 1% Triton-X 100 (Sigma), 0.5% deoxycholate (Sigma), complete EDTA-free protease inhibitor (Sigma)) and clarified by centrifugation. Protein content was quantified using a Pierce BCA Protein Assay Kit (Life Technologies) and 30-50 μg protein were loaded on 12% Tris-Glycine Novex Gels (Invitrogen). Proteins were subsequently transferred to a 0.45 μm PVDF membrane (Sigma). Primary antibodies were used at the following dilutions in 5% BSA:SDHA (Proteintech; 1:1000), NDUFV1 (Abcam; 1:1000), Total OXPHOS Rodent WB Antibody Cocktail-containing UQCRC2, SDHB, and ATP5A (Abcam; 1:1000), COX IV (Cell Signaling Technology; 1:1000), MT-ND5 (Abcam; 1:1000), FLAG (Sigma; 1:1000), HIF1a (Cell Signaling Technology; 1:1000), ATP citrate lyase (Abcam; 1:1000), Citrate Synthase (Cell Signaling; 1:1000). Secondary antibodies were used at the following dilutions in 5% Milk:Anti-rabbit IgG HRP-linked Antibody (1:5000, Cell Signaling Technology), Anti-mouse IgG HRP-linked Antibody (1:5000, Cell Signaling Technology). […]

The next test relates to kidney. Briefly: Kidney tissue cultured ex vivo (quinone levels, fumarate reduction). The following applies: kidney cultured ex vivo for 96 hours, reduced rhodoquinone levels; succinate oxidation not affected. Also noted: species or system mouse. As for the experimental part:
Ex vivo stable isotope tracing on tissues: Tissues were excised from mice and washed in 1×PBS. Tissues were then cut into small pieces and placed in the appropriate stable isotope tracing media. Stable isotope tracing media contained either ^13C5^15N2-glutamine (Sigma) or 13C4-aspartate (Sigma) dissolved in DMEM, 5% FBS, 1% P/S. For ex vivo tracing experiments performed on the brain, the same media was used without FBS. Tissues were incubated for the designated time at 37° C. in a normal or hypoxia tissue culture incubator. Tissues were removed from the media, washed with PBS, and flash frozen in liquid nitrogen. Samples could be stored at −80° C. until metabolites were isolated.
Rhodoquinone-9 is a previously unknown mammalian metabolite. Without wishing to be bound by any particular theory, it is believed that since the level of rhodoquinone-9 decreases overtime when the kidney is cultured ex vivo, that cultured media is missing a component of the rhodoquinone biosynthetic pathway, and that this component may be coming from the gut microbiome.

Test [2] relates to SW1353, U87, DLD1, HCT116, C2C12, primary dermal fibroblasts, Mink lung epithelial cells. Put plainly: Fumarate reduction in a panel of other cell lines. Format: cell-based. The following applies: other human cancer cell lines. The procedure: Stable isotope tracing in cells: Cells were seeded 24 hours prior to the experiment in 6-well dishes at 70% density. For stable isotope tracing of glutamine, glutamine-free DMEM (ThermoFisher) was supplemented with 2 mM ^13C5^15N2-glutamine (Sigma), 1 mM pyruvate, 5% FBS, 1% P/S, 0.1 mg/mL uridine. For stable isotope tracing of aspartate, DMEM containing 5% FBS, and 1% penicillin and streptomycin, and 0.1 mg/mL uridine (Sigma) was supplemented with the designated amount of 13C4-aspartate (Sigma) and the pH adjusted to 7.4. Uridine was left out of the media for stable isotope tracing experiments measuring nucleotide biosynthesis. Unless otherwise stated, for all experiments, cells were treated for 8 hours and metabolites were isolated as described below. Relevant compounds were added at the start of the incubation periods.

The test system of test [3] is 143B cells. Briefly: Cell proliferation. The following applies: antimycin, media containing high pyruvate and aspartate; versus wild-type cells. It counts as cell-based, human. As for the experimental part:
Proliferation: 25,000 cells were seeded in 6-well dishes and counted on day 1 and day 5 on a Beckman Coulter Counter. Doubling times were calculated using the following equation: […]

Test [4] has as its system 143B cells. Put plainly: Polar metabolite profiling (succinate level). The settings on record: 500 nM antimycin 8 hours. Format: cell-based, human. The procedure: Isolation of metabolites from adherent cells: To isolate metabolites, media was removed, cells were washed 2 times with ice cold 1×PBS, and wells were covered in LC-MS grade 80:20 Methanol:Water (ThermoFisher). Plates were scraped on dry ice and lysates were collected into eppendorf tubes. Lysates were vortexed for 10 minutes at 4° C. and centrifuged at 16,000×g for 10 minutes at 4° C. Supernatants were immediately dried down in a Refrigerated CentriVap Benchtop Vacuum Concentrator connected to a CentriVap-105 Cold Trap (Labconco). Dried pellets were stored at −80° C. until they were run on LC-MS.
Liquid Chromatography and Mass Spectrometry (polar): A QExactive bench top orbitrap mass spectrometer equipped with an Ion Max source and a HESI II probe coupled to a Dionex UltiMate 3000 HPLC system (Thermo Fisher Scientific) was used to perform all LC-MS experiments. The instrument underwent mass calibration using the standard calibration mixture every 7 days. 2 μL of re-suspended polar metabolite samples were injected onto a SeQuant ZIC-pHILIC 5 μm 150×2.1 mm analytical column equipped with a 2.1×20 mm guard column (MilliporeSigma). The column oven was held at 25° C. and the autosampler tray was held at 4° C. Buffer A was comprised of 20 mM ammonium carbonate, 0.1% ammonium hydroxide. Buffer B was comprised of 100% acetonitrile. […]

The test system of another test is complex I. Put plainly: NAD+/NADH ratio in cells. Format: cell-based, human. The settings on record: SDHB-null cells treated with antimycin versus wild-type cells treated with antimycin. As for the experimental part:
Next, fumarate reduction was tested to determine if it sustains complex I activity in cells incapable of using O2 as a terminal electron acceptor. Both the NAD+/NADH ratio, which is an indicator of complex I-mediated NADH reoxidation, and the mitochondrial membrane potential (ΔΨ^Mito) to which complex I contributes via proton pumping. […] Thus, fumarate reduction supports partial complex I activity, specifically NADH reoxidation and ΔΨ^Mito, in cells incapable of reducing O2 in the ETC.

In the case of rhodoquinone, the “oxidative and bioenergetic stresses (NRF2 accumulation, phosphorylation on PDH)” value in test [1] is “protects against oxidative and bioenergetic stresses”. Also, the “fumarate reduction in the kidney” value in the test on kidney is reported as “required for ubiquitous fumarate reduction”.
antimycin: in test [2], the fumarate reduction entry is given as “increased”. For the same substance, the “proliferation of SDHB-null cells” value in the test on 143B cells [3] is given as “less than wild-type cells treated with antimycin”. Besides, in the test with 143B cells [4], the succinate level result is reported as “increase”. The “NAD+/NADH ratio” value in the test on complex I is on record as “lower”.
